One may read the EC50 as the concentration needed to bring the measured effect to its halfway point.

The target in one assay is T1, canine T2R5 (Canis lupus, UniProt Q2ABD6).
T1 sequence (Q2ABD6 1-295): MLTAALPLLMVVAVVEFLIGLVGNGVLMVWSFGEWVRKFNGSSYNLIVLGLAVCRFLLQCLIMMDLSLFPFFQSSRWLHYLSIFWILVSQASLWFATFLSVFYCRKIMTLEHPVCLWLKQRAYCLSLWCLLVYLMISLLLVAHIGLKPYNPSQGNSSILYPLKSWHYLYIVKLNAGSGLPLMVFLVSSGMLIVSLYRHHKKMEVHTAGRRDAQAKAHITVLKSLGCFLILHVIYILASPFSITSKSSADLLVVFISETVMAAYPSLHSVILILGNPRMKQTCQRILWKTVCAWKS
The experiment in a line: Canine T2R5 activation, intracellular calcium assay in transiently transfected HEK293 cells, dose response (FIG. 7E). It is filed as cell-based. An excerpt: There is a potential hydrogen bond between Ser89 and each nitrogen of 1, 10 Phenanthroline. Additional residues that can potentially make van der Waals or Pi interactions with the ligand include Pro264, Leu58, Val88, Gln90, Ile86, Leu173, Trp165, Thr258, Ala261, Tyr234, Glu257, Met260, and Trp85.
(§1) No wash step was required for the luminescent protocol.

Another assay concerns the target T2, canine T2R3 (Canis lupus, UniProt Q2ABD8).
T2 sequence (Q2ABD8 1-316): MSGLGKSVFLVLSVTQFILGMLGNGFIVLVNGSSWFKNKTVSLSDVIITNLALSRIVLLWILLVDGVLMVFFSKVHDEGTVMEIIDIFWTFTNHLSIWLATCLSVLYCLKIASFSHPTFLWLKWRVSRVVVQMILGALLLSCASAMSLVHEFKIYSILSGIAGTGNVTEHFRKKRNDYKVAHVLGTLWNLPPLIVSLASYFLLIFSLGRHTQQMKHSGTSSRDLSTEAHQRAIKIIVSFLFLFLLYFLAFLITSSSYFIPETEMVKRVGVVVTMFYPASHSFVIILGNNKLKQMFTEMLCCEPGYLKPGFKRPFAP
The experiment in a line: Canine T2R3 activation, intracellular calcium assay in transiently transfected HEK293 cells, dose response (FIG. 5E). It is filed as cell-based. The note with it: agonist; HEK293 transient, cT2R3 (SEQ ID NO:19); calcium fluorescence or luminescence, FLIPR Tetra; at least 8 concentrations in triplicate.
Source text: Residues that can make hydrogen bonding or charged interactions with the ligand include Asn93 and Asp86. […] Additional residues making primarily van der Waals interactions with the ligand include Phe250, Gly185, Phe243, Thr90, Asn176, Val149, Ile154, Lys174, Met82, Ile85, Lys173, and Met69.
as §1

The target in a further assay is T3, canine T2R10 (Canis lupus, UniProt Q2ABD4).
T3 sequence (Q2ABD4 1-322): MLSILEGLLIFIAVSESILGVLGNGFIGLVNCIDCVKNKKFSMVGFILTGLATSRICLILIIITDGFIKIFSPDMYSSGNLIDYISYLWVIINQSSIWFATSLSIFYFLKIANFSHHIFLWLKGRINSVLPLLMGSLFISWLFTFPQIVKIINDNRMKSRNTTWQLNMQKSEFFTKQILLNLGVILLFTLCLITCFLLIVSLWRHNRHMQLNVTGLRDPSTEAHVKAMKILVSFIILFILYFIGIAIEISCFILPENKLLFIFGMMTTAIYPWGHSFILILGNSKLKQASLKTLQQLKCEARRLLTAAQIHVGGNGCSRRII
The experiment in a line: Canine T2R10 activation, intracellular calcium assay in transiently transfected HEK293 cells, dose response (FIG. 8E). It is filed as cell-based. As to conditions: agonist; HEK293 transient, cT2R10 (SEQ ID NO:23); calcium fluorescence or luminescence, FLIPR Tetra; at least 8 concentrations in triplicate.
Source text: Lys258 and Leu180 (backbone) can potentially make hydrogen bonds with the ligand.
as §1
For orientation: Calcium assays in cells follow changes in intracellular calcium, usually with a dye or a luminescent sensor.

The target in another assay is T4, canine T2R1 (Canis lupus, UniProt Q2ABE0).
T4 sequence (Q2ABE0 1-297): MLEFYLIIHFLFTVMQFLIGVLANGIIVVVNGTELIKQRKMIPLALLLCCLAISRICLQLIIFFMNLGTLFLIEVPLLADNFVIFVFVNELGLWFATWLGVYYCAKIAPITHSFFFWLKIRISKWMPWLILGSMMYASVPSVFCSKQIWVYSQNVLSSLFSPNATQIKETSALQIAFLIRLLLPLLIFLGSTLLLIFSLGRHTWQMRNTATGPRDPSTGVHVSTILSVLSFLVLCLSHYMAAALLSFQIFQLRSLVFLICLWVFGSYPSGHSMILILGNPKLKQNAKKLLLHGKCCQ
The experiment in a line: Canine T2R1 activation, intracellular calcium assay in transiently transfected HEK293 cells, dose response (FIG. 3E). It is filed as cell-based.
Source text: FIGS. 2A-2C show canine T2R sequence alignments. The dashed grey arrows indicate active site positions occupied by mostly asparagine or serine residues. The solid black arrows indicate structural tryptophan residues that are present in all human and cat bitter receptors as well as all canine bitter receptors except T2R12. The dashed black arrows indicate the conserved asparagine which is present in most of the bitter receptors. The conjoined solid arrows indicate the conserved LxxxR motif (IxxxR for some instances in T2R2), wherein x can be any amino acid. […] Asn89 can potentially make a hydrogen bond interaction with the ligand. Other residues that can potentially make hydrogen bonding interactions, pi interactions, or charged interactions with the ligand include Tyr239.
as §1

A further assay has as its target T5, canine T2R2 (Canis lupus, UniProt Q2ABD9).
T5 sequence (Q2ABD9 1-303): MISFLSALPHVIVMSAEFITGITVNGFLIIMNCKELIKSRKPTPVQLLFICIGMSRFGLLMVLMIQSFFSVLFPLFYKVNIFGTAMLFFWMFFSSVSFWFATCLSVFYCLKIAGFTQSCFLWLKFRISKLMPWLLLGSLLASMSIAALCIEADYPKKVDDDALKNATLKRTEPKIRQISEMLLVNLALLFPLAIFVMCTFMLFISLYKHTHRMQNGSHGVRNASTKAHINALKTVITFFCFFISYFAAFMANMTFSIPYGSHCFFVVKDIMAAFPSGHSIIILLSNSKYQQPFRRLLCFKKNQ
Put plainly: Canine T2R2 activation, intracellular calcium assay in transiently transfected HEK293 cells, dose response (FIG. 4E). It is filed as cell-based. As to conditions: agonist; HEK293 transient, cT2R2 (SEQ ID NO:18); calcium fluorescence or luminescence, FLIPR Tetra; at least 8 concentrations in triplicate.
Source text: Residues that can potentially make hydrogen bond or salt bridge interactions with the ligand include Ser94, Trp90, Lys268, Tyr245, and Glu180.
as §1

For a further assay, the target named is canine T2R43 (Canis lupus, UniProt A0A8I3S925). The experiment in a line: cell-based.
Chain of canine T2R43 (A0A8I3S925 1-349): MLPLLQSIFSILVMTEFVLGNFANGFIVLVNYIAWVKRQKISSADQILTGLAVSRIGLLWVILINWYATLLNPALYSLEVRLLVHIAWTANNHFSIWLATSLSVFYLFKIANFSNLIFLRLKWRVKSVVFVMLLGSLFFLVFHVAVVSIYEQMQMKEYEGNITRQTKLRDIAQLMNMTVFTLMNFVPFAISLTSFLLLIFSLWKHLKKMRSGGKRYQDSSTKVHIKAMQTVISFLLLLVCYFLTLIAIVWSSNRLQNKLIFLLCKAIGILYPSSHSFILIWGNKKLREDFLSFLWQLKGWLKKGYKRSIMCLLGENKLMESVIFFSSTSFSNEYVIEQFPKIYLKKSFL

Method for canine T2R43: In vitro functional characterization of the selected modulators was used to evaluate the effectiveness of the putative modulator compounds in modulating the activation of the bitter taste receptors.
HEK293 cells that transiently expressed a canine bitter taste receptor selected from canine T2R1, T2R2, T2R3, T2R4, T2R5, T2R10, and T2R43, were exposed to compounds to determine whether the compounds modulated the activity of the bitter taste receptors.
All transient transfections were performed with Lipofectamine2000 (Invitrogen) according to the manufactures protocol. 10 μl Lipofectamine2000 were diluted in 500 μl DMEM (Life Technologies) and incubated for 5 minutes at room temperature. […] At 27 to 30 hours post-transfection the medium was removed from the cells and 20 μl loading buffer that included a calcium sensitive fluorescent dye or luminescent substrate (Tyrode's buffer+2 μM Fluo4-AM (Invitrogen)+2.5 mM probenecid (Invitrogen) for fluorescence or Coelenterazine (Biosynth)+Tyrode's buffer for luminescence) were added for 1 hour (fluorescence) or 3 hours (luminescence) at 37° C. […]
Activation of the bitter taste receptor was determined by detecting a change in intracellular calcium levels as measured by fluorescence or luminescence of the calcium sensitive fluorescent dye or luminescent photoprotein. […] A FLIPR® Tetra system was used to measure fluorescence or luminescence. […]

As for `c1cnc2c(c1)ccc1cccnc12` [1, 10 Phenanthroline, 1,10-phenanthroline], at canine T2R5, the EC50 amounted to 564 ± 114 µM.
`CCN(CC)CCCC(C)Nc1ccnc2cc(Cl)ccc12` (stereo not drawn) [Chloroquine]: the EC50 on canine T2R3 was 81 ± 11 µM.
Take `CC(=O)OC(C)(C)/C=C/C(=O)[C@](C)(O)[C@H]1[C@H](O)C[C@@]2(C)[C@@H]3CC=C4[C@@H](C[C@H](O)C(=O)C4(C)C)[C@]3(C)C(=O)C[C@]12C` [Cucurbitacin B]: the EC50 at canine T2R10 came to 0.3 ± 0.034 µM.
In the case of `CC(C)[C@@H]1CC[C@@H](C)C[C@H]1O` [Menthol], at canine T2R1, the EC50 stood at 1080 ± 216 µM.
As for `CC1COc2c(N3CCN(C)CC3)c(F)cc3c(=O)c(C(=O)O)cn1c23` (stereo not drawn) [Ofloxacin], the EC50 at canine T2R2 worked out at 232 ± 14 µM.
Compound `CCCc1cc(=O)[nH]c(=S)[nH]1` [Propylthiouracil] gave an EC50 at canine T2R43 of 126 ± 23 µM.

Source of the values: patent US12638438B2, “Screening methods using canine T2R receptors and pet food products and compositions identified using the same” (MARS, INCORPORATED, priority 2015, dated 2026).
